These results are taken from US20260000783A1, “ANTIBODY-DRUG CONJUGATE WITH IMPROVED THERAPEUTIC WINDOW” (priority 2018, published 2026).

The test system of one test is Hela cells. Nature of the test: Cell viability assay (MTS) of HeLa cells with SO1861 + dianthin-EGF and PAMAM, PAMAM-conjugates, G4-dendron or chloroquine. The class given is cell-based, human. Conditions: positive control. The protocol: Hela cells were seeded in DMEM (PAN-Biotech GmbH) supplemented with 10% fetal bovine serum (PAN-Biotech GmbH) and 1% penicillin/streptomycin (PAN-Biotech GmbH), in a 96 well plate at 5,000 c/w in 100 μL/well and incubated overnight at 37° C. and 5% CO2. The next day 20× concentrated stocks of the PAMAM, PAMAM-conjugates, G4-dendron (prepared in Example 3) or chloroquine (Sigma Aldrich) samples were prepared in DMEM. The media was removed from the cell culture plate and replaced by 160 μL culture media, followed by the addition of 10 μL sample/well (from the 20× concentrated stocks) and a 45 min incubation at 37° C. […] Followed by 15 sec sonication and a brief re-heating at 50° C. for 1 min, while shaking at 1,250 rpm. Subsequently a serial dilution of SO1861 was prepared in PBS.
Scientific Multiskan FC plate reader (Thermo Scientific).

Test [1] deals with SK-BR-3, JIMT-1, MDA-MB-468, A431, CaSKi, HeLa, A2058. Nature of the test: Control treatments on all cell lines, relative cell viability (Example 8). The class given is cell-based, human. Conditions: wide range of toxin concentrations, up to 100.000 pM (FIG. 14D).

In the case of `CCN(CC)CCCC(C)Nc1ccnc2cc(Cl)ccc12` (centres unmarked) [Chloroquine], in the test with Hela cells, the “fold increase in glycoside amount to observe 50% cell killing” value is listed as 2 fold. As for saporin, the relative cell viability result in test [1] is “do not or hardly have any influence on cell viability”.
